Each structure is given as a SMILES string.

One assay has as its target T1, HIS-TGFβR1 T204D (Homo sapiens, UniProt P36897, T204D).
T1 sequence (P36897 34-503 T204D): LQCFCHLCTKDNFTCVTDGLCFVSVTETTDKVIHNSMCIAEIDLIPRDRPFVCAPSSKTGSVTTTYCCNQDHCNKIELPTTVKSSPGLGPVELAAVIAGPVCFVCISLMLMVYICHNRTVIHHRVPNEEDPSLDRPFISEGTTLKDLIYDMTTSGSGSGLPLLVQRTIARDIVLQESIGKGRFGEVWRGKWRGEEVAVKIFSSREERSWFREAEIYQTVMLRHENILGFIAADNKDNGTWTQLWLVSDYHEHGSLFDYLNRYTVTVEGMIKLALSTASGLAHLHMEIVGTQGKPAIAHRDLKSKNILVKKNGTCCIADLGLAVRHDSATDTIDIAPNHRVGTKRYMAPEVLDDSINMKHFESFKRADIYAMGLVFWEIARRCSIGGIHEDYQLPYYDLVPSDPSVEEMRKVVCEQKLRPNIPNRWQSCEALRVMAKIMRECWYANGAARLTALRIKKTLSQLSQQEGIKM
The experiment in a line: HTRF probe-displacement assay, HIS-TGFβR1 T204D. It counts as binding. As to conditions: read-out: TGFβR1 (μM) IC50.

The target of the next assay is HIS-TGFβR2 WT (Homo sapiens, UniProt P37173). The experiment in a line: HTRF probe-displacement assay, HIS-TGFβR2 WT. It counts as binding.
Chain of HIS-TGFβR2 WT (P37173 23-567): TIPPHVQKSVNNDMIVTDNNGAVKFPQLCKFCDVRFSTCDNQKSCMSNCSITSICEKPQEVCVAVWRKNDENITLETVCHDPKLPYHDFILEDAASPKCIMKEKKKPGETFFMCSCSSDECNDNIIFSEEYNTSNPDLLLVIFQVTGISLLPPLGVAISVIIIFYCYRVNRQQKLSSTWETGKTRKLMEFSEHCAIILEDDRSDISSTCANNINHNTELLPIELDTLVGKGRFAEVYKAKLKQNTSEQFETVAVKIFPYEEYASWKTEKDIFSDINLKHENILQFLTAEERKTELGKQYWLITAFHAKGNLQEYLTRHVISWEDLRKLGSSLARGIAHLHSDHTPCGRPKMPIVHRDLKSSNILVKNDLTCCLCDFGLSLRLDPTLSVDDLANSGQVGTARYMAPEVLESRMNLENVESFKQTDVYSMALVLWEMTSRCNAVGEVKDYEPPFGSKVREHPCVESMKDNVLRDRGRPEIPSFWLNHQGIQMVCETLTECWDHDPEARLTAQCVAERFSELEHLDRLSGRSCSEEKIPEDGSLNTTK

Turning to `CC(=O)Nc1cc(-c2[nH]c3cccnc3c2-c2cccc(C#N)n2)ccn1` [Example 15, N-{4-[3-(6-Cyanopyridin-2-yl)-1H-pyrrolo[3,2-b]pyridin-2-yl]pyridin-2-yl}acetamide], the IC50 worked out at 0.017 µM on HIS-TGFβR1 T204D and 13.1 µM on HIS-TGFβR2 WT.
The like results for `CC(=O)Nc1cc(-c2[nH]c3cccnc3c2-c2ccc(F)c(C)n2)ccn1` [Example 23, N-{4-[3-(5-Fluoro-6-methylpyridin-2-yl)-1H-pyrrolo[3,2-b]pyridin-2-yl]pyridin-2-yl}acetamide] were, in that order, 0.003 µM and 0.68 µM.
Taken in the same sequence, the figures for `COc1ccnc(-c2c(-c3ccnc(NC(C)=O)c3)[nH]c3cccnc23)c1` [Example 28, N-{4-[3-(4-Methoxypyridin-2-yl)-1H-pyrrolo[3,2-b]pyridin-2-yl]pyridin-2-yl}acetamide] were 0.2 µM and 6.05 µM.
Taken in the same sequence, the figures for `COc1ccc(-c2c(-c3ccnc(NC(=O)CN4CCN(C)CC4)c3)[nH]c3cc(Cl)cnc23)nc1` [Example 249, N-(4-(6-Chloro-3-(5-methoxypyridin-2-yl)-1H-pyrrolo[3,2-b]pyridin-2-yl)pyridin-2-yl)-2-(4-methylpiperazin-1-yl)acetamide] were 0.007 µM and more than 15 µM.
For `CC(=O)Nc1cc(-c2[nH]c3cc(Cl)cnc3c2-c2nc(C(F)F)cs2)ccn1` [Example 172, N-(4-(6-Chloro-3-(4-(difluoromethyl)thiazol-2-yl)-1H-pyrrolo[3,2-b]pyridin-2-yl)pyridin-2-yl)acetamide], the IC50 stood at 0.0004 µM at HIS-TGFβR1 T204D and 3.98 µM on HIS-TGFβR2 WT.
Taken in the same sequence, the figures for `COc1cnc2c(-c3ccc(OC(F)F)cn3)c(-c3ccnc(NC(C)=O)c3)[nH]c2c1` [Example 113, N-(4-(3-(5-(Difluoromethoxy)pyridin-2-yl)-6-methoxy-1H-pyrrolo[3,2-b]pyridin-2-yl)pyridin-2-yl)acetamide] were 0.003 µM and 14.6 µM.
Take `CC(=O)Nc1cc(-c2c(-c3cccc(C(F)F)n3)c3ncccc3n2CC(N)=O)ccn1` [Example 114, 2-(2-(2-Acetamidopyridin-4-yl)-3-(6-(difluoromethyl)pyridin-2-yl)-1H-pyrrolo[3,2-b]pyridin-1-yl)acetamide]: the IC50 on HIS-TGFβR1 T204D is 0.55 µM; on HIS-TGFβR2 WT, more than 15 µM.
For the molecule `CC(=O)Nc1cc(-c2[nH]c3cc(Cl)cnc3c2-c2cccc(CO)n2)ccn1` [Example 67, N-(4-{6-Chloro-3-[6-(hydroxymethyl)pyridin-2-yl]-1H-pyrrolo[3,2-b]pyridin-2-yl}pyridin-2-yl)acetamide], the IC50 was 0.037 µM at HIS-TGFβR1 T204D and 0.36 µM on HIS-TGFβR2 WT.
Taken in the same sequence, the figures for `CC(=O)Nc1cc(-c2[nH]c3cc(Cl)cnc3c2-c2ccc(OC(C)C)cn2)ccn1` [Example 254, N-(4-(6-Chloro-3-(5-isopropoxypyridin-2-yl)-1H-pyrrolo[3,2-b]pyridin-2-yl)pyridin-2-yl)acetamide] were 0.065 µM and more than 15 µM.
Taken in the same sequence, the figures for `CC(=O)Nc1cc(-c2[nH]c3cc(Cl)cnc3c2-c2ncc(Cl)s2)ccn1` [Example 168, N-(4-(6-Chloro-3-(5-chlorothiazol-2-yl)-1H-pyrrolo[3,2-b]pyridin-2-yl)pyridin-2-yl)acetamide] were 0.0138 µM and 1.19 µM.
Taken in the same sequence, the figures for `CCOc1ccnc2c(-c3cccc(C(F)F)n3)c(-c3ccnc(NC(C)=O)c3)[nH]c12` [Example 125, N-(4-{3-[6-(Difluoromethyl)pyridin-2-yl]-7-ethoxy-1H-pyrrolo[3,2-b]pyridin-2-yl}pyridin-2-yl)acetamide] were 0.003 µM and more than 15 µM.
Consider `COc1cnc2c(-c3nc(C)ccc3F)c(-c3ccnc(NC(C)=O)c3)[nH]c2c1` [Example 111, N-(4-(3-(3-Fluoro-6-methylpyridin-2-yl)-6-methoxy-1H-pyrrolo[3,2-b]pyridin-2-yl)pyridin-2-yl)acetamide], for which the IC50 on HIS-TGFβR1 T204D was determined as 0.002 µM; at HIS-TGFβR2 WT, 2.42 µM.
For the molecule `CC(=O)Nc1cc(-c2[nH]c3cc(Cl)cnc3c2-c2ncc(C)s2)ccn1` [Example 169], the IC50 was found to be 0.0023 µM at HIS-TGFβR1 T204D and 0.882 µM on HIS-TGFβR2 WT.
The like results for `COc1ccc(-c2c(-c3ccnc(NC(=O)CN4CCN(C)CC4)c3)[nH]c3cc(Cl)cnc23)cn1` [Example 292, N-(4-(6-chloro-3-(6-methoxypyridin-3-yl)-1H-pyrrolo[3,2-b]pyridin-2-yl)pyridin-2-yl)-2-(4-methylpiperazin-1-yl)acetamide] were, in that order, 0.001 µM and 1.51 µM.
Taken in the same sequence, the figures for `CCOc1cccc(-c2c(-c3ccnc(NC(C)=O)c3)[nH]c3cc(Cl)cnc23)n1` [Example 256, N-(4-(6-Chloro-3-(6-ethoxypyridin-2-yl)-1H-pyrrolo[3,2-b]pyridin-2-yl)pyridin-2-yl)acetamide] were 0.02 µM and more than 15 µM.
Taken in the same sequence, the figures for `CC(=O)Nc1cc(-c2[nH]c3c(C(C)F)ccnc3c2-c2cccc(C(F)F)n2)ccn1` (stereo not shown) [Example 233, N-(4-(3-(6-(Difluoromethyl)pyridin-2-yl)-7-(1-fluoroethyl)-1H-pyrrolo[3,2-b]pyridin-2-yl)pyridin-2-yl)acetamide] were 0.0014 µM and 4.06 µM.
As to `COc1ccc(-c2c(-c3ccnc(NC(C)=O)c3)[nH]c3ccc(F)nc23)cn1` [Example 36, N-{4-[5-Fluoro-3-(6-methoxypyridin-3-yl)-1H-pyrrolo[3,2-b]pyridin-2-yl]pyridin-2-yl}acetamide], the IC50 was determined as 0.002 µM at HIS-TGFβR1 T204D and 0.06 µM at HIS-TGFβR2 WT.
As to `COc1ccc(-c2c(-c3ccnc(N)c3)[nH]c3cc(Cl)cnc23)nc1` [Example 86, 4-[6-Chloro-3-(5-methoxypyridin-2-yl)-1H-pyrrolo[3,2-b]pyridin-2-yl]pyridin-2-amine], the IC50 was 0.008 µM at HIS-TGFβR1 T204D and more than 15 µM at HIS-TGFβR2 WT.
For the molecule `COc1ccc(-c2c(-c3ccnc(N)c3)[nH]c3cccnc23)cn1` [Example 52, 4-[3-(6-Methoxypyridin-3-yl)-1H-pyrrolo[3,2-b]pyridin-2-yl]pyridin-2-amine], the IC50 on HIS-TGFβR1 T204D was found to be 0.041 µM; on HIS-TGFβR2 WT, 0.45 µM.
In the case of `COc1ccc(-c2c(-c3ccnc(NC(=O)CN4CCN(C)CC4)c3)[nH]c3cccnc23)cn1` [Example 287, N-(4-(3-(6-Methoxypyridin-3-yl)-1H-pyrrolo[3,2-b]pyridin-2-yl)pyridin-2-yl)-2-(4-methylpiperazin-1-yl)acetamide], the IC50 on HIS-TGFβR1 T204D was 0.001 µM; at HIS-TGFβR2 WT, 0.668 µM.
The like results for `CC(=O)Nc1cc(-c2[nH]c3cc(Cl)cnc3c2-c2nc(C#N)cs2)ccn1` [Example 177, N-(4-(6-Chloro-3-(4-cyanothiazol-2-yl)-1H-pyrrolo[3,2-b]pyridin-2-yl)pyridin-2-yl)acetamide] were, in that order, 0.0014 µM and more than 15 µM.
Regarding `CC(=O)Nc1cc(-c2[nH]c3c(C(C)O)ccnc3c2-c2cccc(Cl)n2)ccn1` (stereo not shown) [Example 263, N-(4-(3-(6-Chloropyridin-2-yl)-7-(1-hydroxyethyl)-1H-pyrrolo[3,2-b]pyridin-2-yl)pyridin-2-yl)acetamide], the IC50 amounted to 0.001 µM at HIS-TGFβR1 T204D and 0.279 µM at HIS-TGFβR2 WT.
The like results for `COc1cnc2c(-c3cccc(C)n3)c(-c3ccnc(NC(C)=O)c3)[nH]c2c1` [Example 283, N-(4-(6-Methoxy-3-(6-methylpyridin-2-yl)-1H-pyrrolo[3,2-b]pyridin-2-yl)pyridin-2-yl)acetamide] were, in that order, 0.001 µM and 1.12 µM.
Taken in the same sequence, the figures for `CC(=O)Nc1cc(-c2[nH]c3c(C4CCCCO4)ccnc3c2-c2cccc(C(F)F)n2)ccn1` (stereo not shown) [Example 134, N-(4-{3-[6-(Difluoromethyl)pyridin-2-yl]-7-(oxan-2-yl)-1H-pyrrolo[3,2-b]pyridin-2-yl}pyridin-2-yl)acetamide] were 0.004 µM and 8.66 µM.
The like results for `C=Cc1ccnc2c(-c3cccc(C(F)F)n3)c(-c3ccnc(NC(C)=O)c3)[nH]c12` [Example 127, N-(4-{3-[6-(Difluoromethyl)pyridin-2-yl]-7-ethenyl-1H-pyrrolo[3,2-b]pyridin-2-yl}pyridin-2-yl)acetamide] were, in that order, 0.001 µM and 6.65 µM.
Regarding `COc1ccc(-c2c(-c3ccnc(NC(=O)CN4CCN(CCO)CC4)c3)[nH]c3cc(Cl)cnc23)nc1` [Example 252, N-(4-(6-Chloro-3-(5-methoxypyridin-2-yl)-1H-pyrrolo[3,2-b]pyridin-2-yl)pyridin-2-yl)-2-(4-(2-hydroxyethyl)piperazin-1-yl)acetamide], the IC50 on HIS-TGFβR1 T204D is 0.001 µM; on HIS-TGFβR2 WT it was more than 15 µM.
The like results for `CC(=O)Nc1cc(-c2[nH]c3cc(Cl)cnc3c2-c2nc(C(F)(F)F)cs2)ccn1` [Example 175, N-(4-(6-Chloro-3-(4-(trifluoromethyl)thiazol-2-yl)-1H-pyrrolo[3,2-b]pyridin-2-yl)pyridin-2-yl)acetamide] were, in that order, 0.0004 µM and more than 15 µM.
On to `CC(=O)Nc1cc(-c2[nH]c3cccnc3c2-c2cc(C)cc(Cl)n2)ccn1` [Example 30, N-{4-[3-(6-Chloro-4-methylpyridin-2-yl)-1H-pyrrolo[3,2-b]pyridin-2-yl]pyridin-2-yl}acetamide], for which the IC50 at HIS-TGFβR1 T204D came out at 0.32 µM; at HIS-TGFβR2 WT, 0.49 µM.
The like results for `CC(=O)Nc1cc(-c2[nH]c3c(C)ccnc3c2-c2nc(C(F)(F)F)cs2)ccn1` [Example 212, N-(4-(7-Methyl-3-(4-(trifluoromethyl)thiazol-2-yl)-1H-pyrrolo[3,2-b]pyridin-2-yl)pyridin-2-yl)acetamide] were, in that order, 0.0005 µM and 8.82 µM.
